Results: patent US6277876A, “Matrix metalloproteinase inhibitors” (Leo Pharmaceutical Products Ltd. A/S, priority 1998, dated 2001)

Experiments:
MMP-2/3 = assay: In vitro inhibition of MMPs by gelatine zymography (MMP-2/3); format: biochemical, human; settings: concentration that inhibited approximately half of the maximal enzymatic activity; MMPs from MCF-7 conditioned media in gelatine SDS gels, incubated overnight at 37° C., pH 7.5; read-out: In vitro inhibition of matrix metalloproteinases (nM) MMP-2/3
Protocol: (§1) The compounds were tested in vitro using the following procedure: matrix metalloproteinases were obtained from culture media conditioned by MCF-7 human breast cancer cells and separated by electrophoresis on SDS-acrylamide gels (7.0%) copolymerised with gelatine (1 mg/ml, Sigma, Mo., USA). The gels containing the MMPs were then incubated with the test compounds overnight in 10 ml buffer (50 mM tris-HCl, pH 7.5, 200 mM NaCl, 5 mM CaCl2, 1 μM ZnCl2, 0.002% NaN3) at 37° C. The gels were stained for 60 min with 0.5% Coomassie brilliant blue R-250 in 10% acetic acid, destained with 10% acetic acid, incubated with 5% glycerol, and dried with a gel drier. The molar concentrations that inhibited approximately half of the maximal enzymatic activity were then determined.

MMP-9 = molecular target: T1, MMP-9 (Homo sapiens, UniProt P14780); assay: In vitro inhibition of MMPs by gelatine zymography (MMP-9); format: biochemical; settings: concentration that inhibited approximately half of the maximal enzymatic activity; MMPs from MCF-7 conditioned media in gelatine SDS gels, incubated overnight at 37° C., pH 7.5; read-out: In vitro inhibition of matrix metalloproteinases (nM) MMP-9
T1 construct: matrix metalloproteinases were obtained from culture media conditioned by MCF-7 human breast cancer cells; endogenous in cells; host or cells: MCF-7 human breast cancer cells (conditioned culture medium)
Protocol: as §1

T1 sequence (P14780 94-707): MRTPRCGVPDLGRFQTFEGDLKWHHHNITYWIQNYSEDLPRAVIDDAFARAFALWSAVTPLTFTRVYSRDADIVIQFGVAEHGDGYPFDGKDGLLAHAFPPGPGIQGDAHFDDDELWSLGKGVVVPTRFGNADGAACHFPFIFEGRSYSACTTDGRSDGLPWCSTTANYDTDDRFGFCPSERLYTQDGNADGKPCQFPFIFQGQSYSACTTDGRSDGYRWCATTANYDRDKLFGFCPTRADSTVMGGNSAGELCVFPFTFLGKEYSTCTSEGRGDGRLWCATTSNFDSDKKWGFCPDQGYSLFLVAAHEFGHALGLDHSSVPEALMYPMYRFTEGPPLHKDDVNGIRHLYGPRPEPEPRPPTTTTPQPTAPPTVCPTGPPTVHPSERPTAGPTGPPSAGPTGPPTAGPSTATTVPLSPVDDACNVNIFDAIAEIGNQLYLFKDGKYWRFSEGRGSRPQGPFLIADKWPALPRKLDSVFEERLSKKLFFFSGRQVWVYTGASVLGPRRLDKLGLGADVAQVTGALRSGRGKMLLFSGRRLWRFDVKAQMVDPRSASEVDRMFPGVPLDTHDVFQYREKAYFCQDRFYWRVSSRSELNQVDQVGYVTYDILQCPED

Row | IC50 (MMP-2/3) [nM] | IC50 (MMP-9) [nM] | SMILES
1 | 1 | 1 | CNC(=S)[C@H](Cc1ccccc1)NC(=O)[C@H](CCCc1ccccc1)CC(=O)NO [Example 4, N^4 -Hydroxy-N^1-[1(S)-(methylthiocarbamoyl)-2-Rhenylethyl]-2(R)-phenylpropyl-succinamide]
2 | 1 | 1 | O=C(C[C@@H](CCCc1ccccc1)C(=O)N[C@@H](Cc1ccccc1)C(=S)NCCCc1ccccc1)NO [Example 5]
3 | – | 10 | CNC(=O)[C@H](Cc1ccccc1)NC(=O)[C@@H](CC(=O)NO)CC(C)C [Comparator 1, N^1 -Hydroxy-3R-isobutyl-N^4-[1S-(methylcarbamoyl)-2-phenylethyl]-succinamide, reference compound]
4 | 1 | 1 | CNC(=S)[C@H](Cc1ccccc1)NC(=O)[C@@H](CC(=O)NO)CC(C)C [Example 3, N^4 -Hydroxy-2(R)-isobutyl-N^1-[1(S)-(methylthiocarbamoyl)-2-phenylethyl]-succinamide]
